# Experimental data: patent US20240158430A1, “NOVEL COMPOUND OR SALT THEREOF, AND ANTITUMOR ACTIVATOR CONTAINING SAME AS ACTIVE INGREDIENT” (AKITA UNIVERSITY, priority 2021, published 2024)
# Read-outs that look alike come from different tables or passages of the source.
# Key:
# [1] = system: colorectal cancer cell line HCT116; test: Cell growth inhibitory activity, HCT116; format: cell-based
# Description: (§1) The cell growth inhibitory activity against a colorectal cancer cell line HCT116 was measured. As an index of cell growth inhibitory activity, a concentration at which cell growth was inhibited by 50% as compared with a control (IC50) was used. The method is as follows. HCT116 was added to a 6-well plate by 5×10^4, compounds having various concentrations were added after 24 hours, and the number of cells was counted after 72 hours of culture. As the control, DMSO was used in an amount equal to the amount added in accordance with the addition concentration of the highest-concentration compound. The number of cells at each concentration relative to the control was expressed as a percentage.
# (§2) The method is as described above.
# (§3) The cell growth inhibitory activity (IC50) of each of curcumin, GO-Y199, and GO-Y206 against the colorectal cancer cell lines DLD-1 and HCT116 and the gastric cancer cell lines KATO III and H-111-TC was measured. The method is as described above.
# [2] = system: gastric cancer cell line SH-10-TC; test: Cell growth inhibitory activity, SH-10-TC; format: cell-based
# Description: [The source words this procedure for another cell line and reports this cell line under the same test.] as §1, §2
# [3] = system: gastric cancer cell line KATO III; test: Cell growth inhibitory activity, KATO III; format: cell-based
# Description: as §1, §2, §3
# [4] = system: gastric cancer cell line GCIY; test: Cell growth inhibitory activity, GCIY; format: cell-based
# Description: [The source words this procedure for another cell line and reports this cell line under the same test.] as §1, §2
# [5] = system: pancreatic cancer cell line ASPC-1; test: Cell growth inhibitory activity, ASPC-1; format: cell-based; conditions: Table 7
# Description: [The source words this procedure for another cell line and reports this cell line under the same test.] as §1, §2
# [6] = system: cutaneous T-cell lymphoma cell line HH; test: Cell growth inhibitory activity, HH; format: cell-based; conditions: Table 10
# Description: [The source words this procedure for another cell line and reports this cell line under the same test.] as §1, §2
# [7] = system: Caspase 3; test: Influence on Caspase 3, immunohistochemistry; format: cell-based; conditions: 2 μM; 24 hours; control 1.0±0.1%
# Description: The influence of GO-Y199 on NF-kB (p65) was investigated. The method is as follows. 3×10^6 cells of the HCT116 cell line were added to a 10-cm plate, 2 μM of GO-Y199 was added after 24 hours, the cells were collected after 24 hours, embedded in iPGell (GenOStaff), and fixed in formalin, paraffin blocks were then prepared, and immuno-histochemistry was performed with an anti-NF-kB (p65) antibody. In addition, 2 μM and 5 μM of GO-Y199 were added, lysates were collected after 24 hours, and an expression level of NF-kB (p65) was analyzed using an ELISA-plate (NF-kBp65 (pS536) SimpleStep-ELISA-kit, Abcam). An amount of protein was corrected by the absorbance of A 280 nm. The upper part of FIG. 14 indicates photographs of the control group and the GO-Y199 (2 μM)-added group after 24 hours. The lower part of FIG. 14 indicates results of the t-test of these groups after 24 hours. FIG. 15 indicates the comparison results of the NF-kB inhibitory effect of GO-Y199 (2 μM, 5 μM)-added groups with respect to the control group.
# The influence of GO-Y199 on Caspase 3 was investigated. The method is as described above. Immunohistochemistry was performed with an anti-Caspase 3 antibody. Quantification of apoptosis-related protein was performed using M30 Apotosense ELISA (PEVIVA). The upper part of FIG. 20 indicates photographs of the control group and the GO-Y199 (2 μM)-added group after 24 hours. […]
# [8] = system: FOXP3-positive regulatory T cells; test: Regulatory T cell inhibitory activity; format: cell-based, mouse; conditions: 0.3 μM; control 12.8%
# Description: Naive CD4^+ T cells were collected from the spleen of a mouse using a CD4^+CD62L^hi T Cell Isolation Kit (Miltenyi Biotec). 0.5×10^6 cells/mL of the collected T cells were added to a RPMI 1640 medium to which penicillin/streptomycin (5,000 units/mL), 10% fetal bovine serum, and 50 μM of 2-mercaptoethanol were added. Subsequently, 1 μg/mL of anti-CD3 antibody (eBioscience) was added to the medium, and 1 μg/ml of anti-CD28 antibody (eBioscience) was further added thereto. The medium was then cultured at 37° C. for 3 days. Then, TGF-β1 (2 ng/mL) was added to the medium and cultured for 24 hours. After that, a FOXP3 Staining Buffer Kit (eBioscience) was used to fix the cells and treat cell membranes, and FOXP3 in the nuclei was stained. The stained cells were measured using a BD LSRFortessa™ (BD Bioscience) flow cytometer, and the obtained data was analyzed with FlowJo (Tree-Star version).
# [9] = system: MSTO-211H cells; test: Antitumor effect on malignant mesothelioma cells, animal model; format: in vivo, nude mice
# Description: An animal model was used to investigate the antitumor effect of GO-Y199 on malignant mesothelioma cells. The method is as follows. 2.8×10^6 MSTO-211H cells were intraperitoneally transplanted into each of 5 nude mice. From Day 5, 43 μL of 100 mM GO-Y199 in DMSO was diluted to 500 μL with PBS and intraperitoneally administered to the mice (equivalent to 5 mg of GO-Y199). As a control group, a DMSO-PBS solution having the equivalent concentration was intraperitoneally administered to each of four nude mice to which MSTO-211H cells were intraperitoneally transplanted in the same manner. The administration was performed 5 times in total at intervals of 5 days. After 30 days, the mice were sacrificed, necropsied, and analyzed.
# [10] = Blood concentration after intravenous injection; format: in vivo, BALB/cSlc-nu/+ mice; conditions: mouse, 1 mg tail vein
# Description: The blood concentration of GO-Y199 after intravenous injection was investigated. The method is as follows. To BALB/cSlc-nu/+ mice, the equivalent of 1 mg of GO-Y199 was injected into the tail vein as described above, blood was collected from the orbital vein over time, and the serum was subjected to HPLC to measure the blood concentration of GO-Y199. FIG. 27 indicates results of HPLC analysis of blood after intravenous injection. FIG. 28 indicates results of changes over time in the blood concentration of GO-Y199 after intravenous injection.
compound,measurement,setting,value
COCOc1cc(/C=C/C(=O)CC(SCCOCCOCCOCCOCc2cn([C@@H]3O[C@H](CO)[C@@H](O[C@@H]4O[C@H](CO)[C@H](O)[C@H](O)[C@H]4O)[C@H](O)[C@H]3O)nn2)c2cc(OCOC)cc(OCOC)c2)cc(OCOC)c1 (stereo partly shown) [GO-Y199],IC50,"[1]; Table 3, HCT116, cell count after 72 hours of culture vs DMSO control, read-out: IC50",0.43 µM
same,"GO-Y199 vs GO-Y030 (IC50 comparison), HCT-116","[1]; Table 5, ratio of IC50",0.65
same,"GO-Y199 vs curcumin (IC50 comparison), HCT-116","[1]; Table 5, ratio of IC50",0.029
same,IC50,"[1]; Table 6, read-out: IC50 (μM) HCT116",0.98 µM
same,IC50,"[1]; read-out: IC50 HCT-116, Table 4, 72 hours",0.46 µM
same,IC50,"[2]; Table 4, 72 hours",1000 nM
same,"GO-Y199 vs GO-Y030 (IC50 comparison), SH-10-TC","[2]; Table 5, ratio of IC50",0.65
same,"GO-Y199 vs curcumin (IC50 comparison), SH-10-TC","[2]; Table 5, ratio of IC50",0.124
same,IC50,"[3]; Table 4, 72 hours, read-out: IC50 KATO III",0.8 µM
same,IC50,"[3]; Table 6, read-out: IC50 (μM) KATO III",3.86 µM
same,IC50,"[4]; Table 4, 72 hours",160 nM
same,"GO-Y199 vs GO-Y030 (IC50 comparison), GCIY","[4]; Table 5, ratio of IC50",1.24
same,"GO-Y199 vs curcumin (IC50 comparison), GCIY","[4]; Table 5, ratio of IC50",0.03
same,IC50,[5],1.03 µM
same,IC50,[6],1.11 µM
same,proportion of Caspase 3-expressing cells,[7],57.4±2.6%
same,induction ratio of FOXP3-positive regulatory T cells,[8],2.22%
same,animals with microscopic peritoneal disseminated lesions,"[9]; 5 mg i.p., 5 times at intervals of 5 days, after 30 days, control 75%",80%
same,size (maximum diameter) of disseminated nodule,"[9]; 5 mg i.p., 5 times, after 30 days, control 6 to 13 mm",5 mm
same,animals with disseminated nodule of maximum diameter exceeding 5 mm,"[9]; 5 mg i.p., 5 times, after 30 days, control 100%",20%
same,"pathologic analysis, inside of the disseminated nodule",[9]; control filled with tumor cells,necrotic
same,tumor formation at the puncture site,[9]; not observed in control group,one animal
same,time for which the blood concentration is maintained,[10],3 h
same,time after which GO-Y199 disappeared from the blood,[10]; serum HPLC,180 min
same,time until which the blood concentration rapidly decreased,[10]; serum HPLC,60 min
